Values of other authors in patent US20260098286A1, “Low Dose Psilocybin in Foodstuff and Microbes for Same” (ATX PHARMERS LLC, priority 2021, published 2026).

Key:
[1] = degrades in the presence of oxygen
[2] = adults
[3] = test system: human serotonin-related receptors
[4] = not given; remark: listed apart in the source
[5] = weight per weight basis
[6] = in vivo

Row | Compound | stability in solution [1] | blood plasma concentration at which psychological effects occur [2] | psilocin concentrations in the plasma (average) ([2]; within 2 hours after single 15 mg oral psilocybin dose) | number of human serotonin-related receptors bound [3] | detectability in the urine (after 7 days) | ingested psilocybin absorbed through the stomach and intestine (animal studies) | absorbed psilocybin excreted in the bile and feces (within 24 hours) | absorbed psilocybin excreted into the urine (within 24 hours) | effects begin after ingestion ([4]; after ingestion) | effects last ([4]; depending on dose, species, and individual metabolism) | half-life of psilocybin ([4]; taken orally) | potency relative to LSD (times less potent) [5] | toxicity [6]
1 | CN(C)CCc1c[nH]c2cccc(O)c12 [psilocin] | relatively unstable | 4-6 μg/liter | about 8 μg/liter | over 15 | – | – | – | – | – | – | – | – | –
2 | CN(C)CCc1c[nH]c2cccc(OP(=O)(O)O)c12 [psilocybin, 4-phosphoryloxy-N,N-dimethyltryptamine] | – | – | – | – | still detectable | about 50% | 15-20% | about 65% | 10 to 40 min | 2 to 6 h | 2.72 ± 1.07 h | about 100 times | low toxicity
